Reference: US10154974B1, “Use of abscisic acid for the prevention and treatment of malaria” (The Regents of the University of California, priority 2015, dated 2018)
“And” between values parts separate entries of the source, which are not always exact repeats. Equal entries are not always repeated.

How the values were obtained:
[1] = tested on: AsNOS; test: AsNOS transcript levels in mosquito midgut; format: in vivo, Anopheles stephensi; conditions: midguts, relative to controls, 4-6 hours post-feeding
Experimental: (§1) For mosquito immune gene expression, 20 midguts were dissected from mosquitoes in each treatment group at 1, 2, 4, 6, 8 and 24 hours post-feeding. Midguts were sonicated and stored in Trizol at −20° C. for up to a week before RNA was extracted according to manufacturer's instructions. cDNA synthesis was carried out using QantiTect Reverse Transcription Kit (Qiagen) and 200 ng of cDNA used per reaction for qRT-PCR with Sybr Green (Applied Biosystems). Fold changes in expression levels were calculated using the comparative threshold cycle method. Data were normalized to the housekeeping gene ribosomal protein S7 and to the control treatment. Primers and cycling conditions for AsNOS, defensin, LRIM, TEP1, and APL1 were as previously described (Hauck E S, et al. Microbes Infect. 2013; 15:775-87). […] Samples were analyzed in triplicate with 250 ng of cDNA per reaction to confirm uniformity of amplification. […] All expression data were analyzed by one sample t-test.
(§2) Transcript levels of a panel of immune genes previously described to play a role in the mosquito immune response to malaria parasites were examined. […] Mosquitoes were provided with a P. falciparum-infected bloodmeal supplemented with 100 nM ABA or with an equivalent volume of diluent as control, then analyzed at 1-24 hours post feeding.

[2] = tested on: inflammatory bowel disease (IBD); conditions: ABA supplementation; cited from earlier work
[3] = Complete blood counts; format: in vivo, mice
Experimental: FIG. 19A-C through FIG. 28A-B and Tables 6-1 through 6-4 support the use of ABA for treating Plasmodium-infected mammalian subjects. In the following tables, 4-5 mice were used per treatment, and data were analyzed by unpaired t-test. […] Abbreviations for Tables 6-3 and 6-4 are as follows: WBC=white blood cells, RBCs=red blood cells, MCV=mean corpuscular volume, MCH=mean corpuscular hemoglobin, MCHC=mean corpuscular hemoglobin concentration, RDW=red blood cell distribution width, MPV=mean platelet volume.

[4] = tested on: Anopheles stephensi; test: Mosquito lifespan with weekly ABA-supplemented bloodmeals; format: in vivo
Experimental: Median survival of control and ABA-treated mosquitoes from five lifespans in which mosquitoes received a weekly control or ABA-supplemented uninfected bloodmeal. Each lifespan was conducted with 300 female mosquitoes per treatment. Data were analyzed by Wilcoxon matched-pairs signed rank test.
FIG. 17A is a survival curve of mosquitoes provided weekly control or ABA-supplemented uninfected bloodmeals and maintained on 3% sucrose solution. FIG. 17B is a survival curve of P. falciparum-infected mosquitoes provided control or ABA-supplemented weekly bloodmeals. Infection status was determined by detection of PfCOX in individual mosquitoes by qRT-PCR. Data were analyzed by log-rank test and Gehan-Breslow-Wilcoxon test.

[5] = tested on: APL1; test: APL1 expression in mosquito midgut; format: in vivo, Anopheles stephensi; conditions: 100 nM ABA, 4 and 8 hours post-feeding
Experimental: as §1, §2

[6] = tested on: Anopheles stephensi; test: Mosquito egg production and viability; format: in vivo; conditions: single ABA-supplemented uninfected bloodmeal
Experimental: The egg laying rate and hatch rate were analyzed using Fisher's exact test. […] Each dot represents the clutch size of a single mosquito. Clutch size was analyzed by unpaired t-test.

[7] = tested on: MAPK (erk, jnk, p38); test: MAPK phosphorylation in mosquito midgut; format: in vivo, Anopheles stephensi; conditions: 0 to 4 hours
[8] = tested on: P. yoelii 17XNL; test: P. yoelii 17XNL infection of CD1 mice given ABA in drinking water (parasitemia, gametocytemia); format: in vivo
Experimental: 6-8 week old female CD1 mice (Jackson) were housed four to a cage and provided with unsupplemented water or water supplemented with 2.56 mM (±)-abscisic acid (CAS Registry Number 14375-45-2) obtained from Sigma-Aldrich (Catalog No. A1049). Water and supplemented water were changed daily. […] Mouse weight, water consumption per cage, and parasitemia were monitored daily. Parasitemia was determined from thin blood films stained with Giemsa. Parasitemia was measured as the percentage of infected RBCs divided by total RBCs, while gametocytemia was measured as the proportion of gametocyte-containing RBCs of total infected RBCs. Four mice were used per group in replicated studies. Daily parasitemias and gametocytemias were analyzed by unpaired t-test.

[9] = P. yoelii infection, day 11 post-infection

SMILES: CC1=CC(=O)CC(C)(C)[C@@]1(O)/C=C/C(C)=C\C(=O)O (racemic) [ABA, (2Z,4E)-5-[(1S)-1-hydroxy-2,6,6-trimethyl-4-oxocyclohex-2-en-1-yl]-3-methylpenta-2,4-dienoic acid]
- AsNOS transcript levels induction [1]: up to 13 fold
- epithelial erosion and leukocyte infiltration [2]: reduced
- percentage of basophils in whole blood [3, 9]: partially rescues decrease
- percentage of eosinophils in whole blood [3, 9]: partially rescues decrease
- % RDW, Mean ([3]; P. yoelii-infected mice): 34.95%
- % hematocrit, Mean ([3]; P. yoelii-infected mice): 21.00%
- % lymphocytes, Mean ([3]; P. yoelii-infected mice): 69.22%
- % monocytes, Mean ([3]; P. yoelii-infected mice): 5.31%
- % neutrophils, Mean ([3]; P. yoelii-infected mice): 22.8%
- MCHC, Mean ([3]; P. yoelii-infected mice): 34.73 g/dL
- MCV, Mean ([3]; P. yoelii-infected mice): 55.20 fL
- MPV, Mean ([3]; P. yoelii-infected mice): 6.23 fL
- RBCs, Mean ([3]; P. yoelii-infected mice): 3.83 M/ul
- WBC, Mean ([3]; P. yoelii-infected mice): 31.90 K/uL
- hemoglobin, Mean ([3]; P. yoelii-infected mice): 7.28 g/dL
- platelets, Mean ([3]; P. yoelii-infected mice): 234.3 K/ul
- complete blood counts ([3]; uninfected and P. yoelii-infected mice): no effect
- % RDW, Mean ([3]; uninfected mice): 17.02%
- % hematocrit, Mean ([3]; uninfected mice): 38.48%
- % lymphocytes, Mean ([3]; uninfected mice): 66.56%
- % monocytes, Mean ([3]; uninfected mice): 11.71%
- % neutrophils, Mean ([3]; uninfected mice): 17.53%
- MCHC, Mean ([3]; uninfected mice): 32.72 g/dL
- MCV, Mean ([3]; uninfected mice): 43.14 fL
- MPV, Mean ([3]; uninfected mice): 5.74 fL
- RBCs, Mean ([3]; uninfected mice): 8.94 M/ul
- WBC, Mean ([3]; uninfected mice): 5.73 K/uL
- hemoglobin, Mean ([3]; uninfected mice): 12.56 g/dL
- platelets, Mean ([3]; uninfected mice): 573.0 K/ul
- mosquito lifespan ([4]; P. falciparum-infected mosquitoes): does not alter
- mosquito median survival ([4]; five lifespans, weekly uninfected bloodmeal): does not alter
- Median Survival ([4]; mosquitoes, weekly ABA-supplemented uninfected bloodmeal, replicates 1-5): 23 days and 16 days (2×) and 21 days and 18 days
- mosquito lifespan ([4]; nutrient stress: maintained on 3% sucrose solution): does not alter
- APL1 expression [5]: increased
- egg production or viability [6]: does not alter
- MAPK phosphorylation [7]: does not alter
- parasitemia ([8]; CD1 mice, day 4 to day 7 post-infection, relative to controls (Example 1)): reduced
- gametocytemia ([8]; CD1 mice, day 6 of infection (Example 1)): reduced
- gametocytemia ([8]; day 5 post-infection (Example 2)): reduced
- parasitemia ([8]; starting on day 3 post-infection, compared to controls (Example 2)): reduced
